Assay results taken from paper PMC6646865, “Design and Synthesis of Imidazole and Triazole Pyrazoles as Mycobacterium Tuberculosis CYP121A1 Inhibitors” (ChemistryOpen, 2019).
Values after ≈ are worked out from the molar mass of the structure shown. Like-named read-outs stand apart in the source and are kept apart here.

Legend:
CYP121A1 [1] = target: T1, CYP121A1 (Mycobacterium tuberculosis, UniProt P9WPP7); settings: cited from earlier work; for Soret peak shift to: azole antifungal drugs binding Mtb CYP121A1; for Soret peak shift: lead compounds and cYY (type I shift for cYY); for Kd: lead compounds and natural substrate cYY
T1 construct: made in house

M. tuberculosis H37Rv [2] = assay: Antimycobacterial activity, REMA (Resazurin Microtiter Assay) MIC; format: cell-based, Mycobacterium tuberculosis; settings: lowest concentration giving 90 % inhibition, 7 days 37 °C
CYP121A1 [3] = target: T1, CYP121A1; assay: biochemical; format: binding; settings: for Soret peak shift: Soret maximum ligand-free to ligand-bound CYP121A1; for Kd: UV-vis optical titration, 3–5 μM CYP121A1, 25 °C, pH 7.85, triplicate; for Soret maxima shifting by: extent of the Soret absorbance red shift on binding
M. tuberculosis H37Rv [4] = system: M. tuberculosis H37Rv; design: method as in PMID 29185746; settings: lead compounds; cited from earlier work
[5] = Mycobacterium tuberculosis, H37RV, 168 h, read-out: MIC

T1 sequence (P9WPP7 whole entry): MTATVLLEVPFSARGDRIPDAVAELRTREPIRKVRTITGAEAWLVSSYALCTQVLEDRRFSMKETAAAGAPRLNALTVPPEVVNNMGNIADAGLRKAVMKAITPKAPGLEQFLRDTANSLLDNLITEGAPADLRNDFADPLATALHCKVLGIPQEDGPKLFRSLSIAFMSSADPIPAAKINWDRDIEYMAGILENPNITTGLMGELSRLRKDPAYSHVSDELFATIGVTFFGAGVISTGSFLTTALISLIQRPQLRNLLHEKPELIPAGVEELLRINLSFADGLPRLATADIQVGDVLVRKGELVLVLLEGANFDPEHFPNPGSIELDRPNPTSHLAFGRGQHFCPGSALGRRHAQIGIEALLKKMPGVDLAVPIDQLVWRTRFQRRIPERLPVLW

Structure (SMILES)	MIC (M. tuberculosis H37Rv [2]; [5])	Soret peak shift (CYP121A1 [3])	Kd (CYP121A1 [3])	melting point	further results
Clc1ccc(COC(Cn2ccnc2)c2ccc(Cl)cc2Cl)cc1 (centres unmarked) [econazole]	–	–	–	–	Soret peak shift to (CYP121A1 [1]): 421–423.5 nm
COc1ccc(-n2nc(Cn3cncn3)cc2C)cc1 [Compound 24, 1‐((1‐(4‐Methoxyphenyl)‐5‐methyl‐1H‐pyrazol‐3‐yl)methyl)‐1H‐1,2,4‐triazole]	> 100 µg/mL	416.5 to 418 nm	105 ± 7 µM	–	–
OC(Cn1cncn1)(Cn1cncn1)c1ccc(F)cc1F [Fluconazole, fluconazole, reference compound]	> 100 µg/mL	–	–	–	–
Clc1ccccc1C(c1ccccc1)(c1ccccc1)n1ccnc1 [Clotrimazole, clotrimazole, reference compound]	20 µg/mL (≈ 58 µM)	–	–	–	–
CCCc1ccc(-c2nn(-c3ccccc3)cc2Cn2ccnc2)cc1 [10 d, 4‐((1H‐Imidazol‐1‐yl)methyl)‐1‐phenyl‐3‐(4‐propylphenyl)‐1H‐pyrazole]	0.781 µg/mL (≈ 2.28 µM)	416.5 to 420 nm	53.7 ± 5.9 µM	–	–
Clc1[nH]c2ccccc2c1-c1nn(-c2ccccc2)cc1Cn1ccnc1 [10 j, 3‐(4‐((1H‐Imidazol‐1‐yl)methyl)‐1‐phenyl‐1H‐pyrazol‐3‐yl)‐2‐chloro‐1H‐indole]	12.5 to 25 µg/mL (≈ 33.4 to 66.9 µM)	416.5 to 423.5 nm	3.31 ± 0.05 µM	–	MIC (M. tuberculosis H37Rv [2]): 25 µg/mL (≈ 66.9 µM); Soret maxima shifting by (CYP121A1 [3]): 7 nm
c1ccc(-n2cc(Cn3ccnc3)c(-c3cccnc3)n2)cc1 [10 b, 3‐(4‐((1H‐Imidazol‐1‐yl)methyl)‐1‐phenyl‐1H‐pyrazol‐3‐yl)pyridine]	12.5 to 25 µg/mL (≈ 41.5 to 83 µM)	416.5 to 421 nm	53.6 ± 6.8 µM	–	MIC (M. tuberculosis H37Rv [2]): 12.5 µg/mL (≈ 41.5 µM)
COc1ccc(-n2nc(C)cc2Cn2cncn2)cc1 [Compound 26, 1‐((1‐(4‐Methoxyphenyl)‐3‐methyl‐1H‐pyrazol‐5‐yl)methyl)‐1H‐1,2,4‐triazole]	100 µg/mL (≈ 371 µM)	–	98.3 ± 7.4 µM	47 to 48 °C	–
Clc1ccc(COC(Cn2ccnc2)c2ccc(Cl)cc2Cl)c(Cl)c1 (centres unmarked) [miconazole]	–	–	–	–	Soret peak shift to (CYP121A1 [1]): 421–423.5 nm
c1ccc(-c2ccc(-c3nn(-c4ccccc4)cc3Cn3ccnc3)cc2)cc1 [10 h, 4‐((1H‐Imidazol‐1‐yl)methyl)‐3‐([1,1′‐biphenyl]‐4‐yl)‐1‐phenyl‐1H‐pyrazole]	3.12 µg/mL (≈ 8.3 µM)	416.5 to 423.5 nm	2.91 ± 0.14 µM	114 to 115 °C	Soret maxima shifting by (CYP121A1 [3]): 7 nm
CC(C)c1ccc(-c2nn(-c3ccccc3)cc2Cn2ccnc2)cc1 [10 e, 4‐((1H‐Imidazol‐1‐yl)methyl)‐3‐(4‐isopropylphenyl)‐1‐phenyl‐1H‐pyrazole]	1.56 µg/mL (≈ 4.56 µM)	416.5 to 423 nm	22.5 ± 3.5 µM	–	Soret maxima shifting by (CYP121A1 [3]): 6.5 nm
c1ccc(-n2cc(Cn3cncn3)c(-c3cccnc3)n2)cc1 [11 b, 3‐(4‐((1H‐1,2,4‐Triazol‐1‐yl)methyl)‐1‐phenyl‐1H‐pyrazol‐3‐yl)pyridine]	> 100 µg/mL	416.5 to 417.5 nm	250 ± 51.6 µM	110 to 112 °C	–
O=C(NCCCn1ccnc1)c1cn(-c2ccccc2)nc1-c1cccnc1 [13 b, N‐(3‐(1H‐Imidazol‐1‐yl)propyl)‐1‐phenyl‐3‐(pyridin‐3‐yl)‐1H‐pyrazole‐4‐carboxamide]	> 100 µg/mL	416.5 to 417.5 nm	85.6 ± 12.4 µM	80 to 82 °C	–
CC(=O)N1CCN(c2ccc(OCC3COC(Cn4ccnc4)(c4ccc(Cl)cc4Cl)O3)cc2)CC1 (centres unmarked) [ketoconazole]	–	–	–	–	Soret peak shift to (CYP121A1 [1]): 421–423.5 nm
CC(C)Cc1ccc(-c2nn(-c3ccccc3)cc2Cn2ccnc2)cc1 [10 f, 4‐((1H‐Imidazol‐1‐yl)methyl)‐3‐(4‐isobutylphenyl)‐1‐phenyl‐1H‐pyrazole]	1.56 µg/mL (≈ 4.38 µM)	416.5 to 423.5 nm	0.22 ± 0.01 µM	–	Soret maxima shifting by (CYP121A1 [3]): 7 nm
c1ccc(-n2cc(Cn3ccnc3)c(-c3ccc4c(c3)OCO4)n2)cc1 [10 i, 4‐((1H‐Imidazol‐1‐yl)methyl)‐3‐(benzo[d][1,3]dioxol‐5‐yl)‐1‐phenyl‐1H‐pyrazole]	3.12 µg/mL (≈ 9.07 µM)	416.5 to 422.5 nm	10.1 ± 0.3 µM	62 to 64 °C	–
CC(C)(C)c1ccc(-c2nn(-c3ccccc3)cc2Cn2ccnc2)cc1 [10 g, 4‐((1H‐Imidazol‐1‐yl)methyl)‐3‐(4‐(tert‐butyl)phenyl)‐1‐phenyl‐1H‐pyrazole]	1.56 µg/mL (≈ 4.38 µM)	416.5 to 419.5 nm	4.81 ± 0.31 µM	116 to 117 °C	–
O=C(NCc1ccncc1)c1cn(-c2ccccc2)nc1-c1cccnc1 [14 b, 1‐Phenyl‐3‐(pyridin‐3‐yl)‐N‐(pyridin‐4‐ylmethyl)‐1H‐pyrazole‐4‐carboxamide]	> 100 µg/mL	416.5 to 417.5 nm	39 ± 8.2 µM	206 to 208 °C	–
CCc1ccc(-c2nn(-c3ccccc3)cc2Cn2ccnc2)cc1 [10 c, 4‐((1H‐Imidazol‐1‐yl)methyl)‐3‐(4‐ethylphenyl)‐1‐phenyl‐1H‐pyrazole]	1.56 µg/mL (≈ 4.76 µM)	416.5 to 420 nm	18.3 ± 3.4 µM	74 to 76 °C	–
COc1ccc(-n2nc(C)cc2Cn2ccnc2)cc1 [Compound 25, 5‐((1H‐Imidazol‐1‐yl)methyl)‐1‐(4‐methoxyphenyl)‐3‐methyl‐1H‐pyrazole]	25 µg/mL (≈ 93.2 µM)	416.5 to 418.5 nm	22.9 ± 0.2 µM	–	–
COc1ccc(-n2nc(Cn3ccnc3)cc2C)cc1 [Compound 23, 3‐((1H‐Imidazol‐1‐yl)methyl)‐1‐(4‐methoxyphenyl)‐5‐methyl‐1H‐pyrazole]	–	416.5 to 418 nm	34.5 ± 4.8 µM	–	–
O=C(NCc1ccncc1)c1cn(-c2ccccc2)nc1-c1ccncc1 [14 a, 1‐Phenyl‐3‐(pyridin‐4‐yl)‐N‐(pyridin‐4‐ylmethyl)‐1H‐pyrazole‐4‐carboxamide]	> 100 µg/mL	416.5 to 419.5 nm	219 ± 13.6 µM	206 to 208 °C	–
c1ccc(-c2nn(-c3ccccc3)cc2Cn2cncn2)cc1 [Compound 2, 1‐((1,3‐diphenyl‐1H‐pyrazol‐4‐yl)methyl)‐1H‐1, 2, 4triazole]	–	–	–	–	MIC (M. tuberculosis H37Rv [4]): 50 µg/mL (≈ 166 µM); Soret peak shift (CYP121A1 [1]): 416.5 to 422.5 nm; Kd (CYP121A1 [1]): 73.5 ± 0.7 µM
c1ccc(-c2nn(-c3ccccc3)cc2Cn2ccnc2)cc1 [Compound 1, (1,3‐diphenyl)‐4‐((1,3‐imidazol‐1‐yl)methyl)‐1H‐pyrazole]	–	–	–	–	MIC (M. tuberculosis H37Rv [4]): 12.5 µg/mL (≈ 41.6 µM); Soret peak shift (CYP121A1 [1]): 416.5 to 424 nm; Kd (CYP121A1 [1]): 2.6 ± 0.2 µM
c1ccc(-n2cc(Cn3ccnc3)c(-c3ccncc3)n2)cc1 [10 a, 4‐(4‐((1H‐Imidazol‐1‐yl)methyl)‐1‐phenyl‐1H‐pyrazol‐3‐yl)pyridine]	12.5 to 25 µg/mL (≈ 41.5 to 83 µM)	416.5 to 419 nm	60.5 ± 10.5 µM	80 to 82 °C	MIC (M. tuberculosis H37Rv [2]): 12.5 µg/mL (≈ 41.5 µM)
c1ccc(-n2cc(Cn3cncn3)c(-c3ccncc3)n2)cc1 [11 a, 4‐(4‐((1H‐1,2,4‐Triazol‐1‐yl)methyl)‐1‐phenyl‐1H‐pyrazol‐3‐yl)pyridine]	> 100 µg/mL	416.5 to 417.5 nm	115 ± 27 µM	98 to 100 °C	–
O=C(NCCCn1ccnc1)c1cn(-c2ccccc2)nc1-c1ccncc1 [13 a, N‐(3‐(1H‐Imidazol‐1‐yl)propyl)‐1‐phenyl‐3‐(pyridin‐4‐yl)‐1H‐pyrazole‐4‐carboxamide]	100 µg/mL (≈ 269 µM)	416.5 to 423.5 nm	83.2 ± 3.9 µM	104 to 106 °C	Soret maxima shifting by (CYP121A1 [3]): 7 nm
